Data reported in US20250085273A1, “NOVEL RAPID DRUG DISCOVERY FOR SEPSIS AND AGENTS FOR USE AS SEPSIS THERAPY” (priority 2023, published 2025).
Counter-ions that a name gives are not always drawn.

Experiments:
Format in all cases: in vivo, Danio rerio
[1] = tested on: larval zebrafish exposed to Pseudomonas aeruginosa 60 μg/mL lipopolysaccharide (LPS); experiment: Zebrafish endotoxicity/sepsis model drug screening, statements without larval stage; conditions: for rescue from mortality / rescue from vascular damage (tail edema): zebrafish endotoxemia model
Text: To identify potential sepsis drug candidates, an optimized larval zebrafish model of endotoxicity/sepsis was used to screen commercial libraries of U.S. Food and Drug Administration (FDA)-approved drugs and other active pharmaceutical ingredients (API) known to affect pathways implicated in the initiation and progression of sepsis in humans (i.e., inflammation, mitochondrial dysfunction, coagulation, and apoptosis). In this model, endotoxicity was induced in 3- and 5-day post fertilization larval zebrafish (characterized by mortality and tail fin edema (vascular leakage)) by immersion exposure to Pseudomonas aeruginosa 60 μg/mL lipopolysaccharide (LPS) for 24 hours, then screened for the rescue potential of 644 selected drugs simultaneously with LPS at 10 μM. After LPS exposure, a neurobehavioral assay (light-dark test) was performed to further evaluate rescue from endotoxicity and to determine possible off-target drug side effects.

[2] = tested on: 3-dpf Zebrafish Embryos Challenged with LPS (P. aeruginosa 60 μg/mL); conditions: P. aeruginosa LPS 60 μg/mL, compound 10 μM; for Percent Rescue (Mort + Tail Edema): 3-dpf embryos, n=16; for Percent Rescue (Mort + Tail Edema) / rescue of tail edema and mortality (sepsis rescue rate) at 3-dpf: 24 hours; for 3 dpf Embryos Percent Rescue (Mort + Tail Edema): initial 3-dpf screen shown for reference
Description: Healthy, normally developing embryos collected from the adult AB zebrafish spawning events were treated with 75 μM of 1-phenyl 2-thiourea (PTU) in EM prior to 24 hours post fertilization (hpf) to block pigmentation formation (Karlsson et al, 2001). These embryos were then placed into an incubator at 28.5° C. until they reached 3-dpf. Embryos were then removed from the incubator and plated individually into the wells of 96 well plates containing 50 μL of EM.
A super stock of 120 μg/mL of P. aeruginosa LPS was made up in EM in a glass container. This stock was then used to make sub stocks of 120 μg/mL P. aeruginosa LPS (positive control) and 120 μg/mL P. aeruginosa LPS containing 20 μM of test drug in glass scintillation vials. Immediately after the sub stocks were made, the wells were dosed with either 50 μL of 120 μg/mL of P. aeruginosa, 120 μg/mL of P. aeruginosa with 20 μM of test drug, or EM (1:1 Dilution). Each 96 well plate had one LPS positive control (n=16), 4 different test drugs with P. aeruginosa LPS (n=16 per drug), and one negative control (n=16). Once the plates were dosed, they were covered with parafilm and placed into an incubator at 28.5° C. The plates were removed at 6- and 24-hours post exposure to be scored for tail edema and mortality. All 644 drugs evaluated for rescue from mortality and tail edema induced by P. aeruginosa LPS exposure as compared to LPS-treated controls after 24 hours of exposure.
3-dpf embryos were challenged with 60 μg/mL P. aeruginosa LPS in combination with single 10 μM concentration of each compound for 24 hours (n=16 fish per compound). […] Other 29 compounds exceeded 60% rescue of tail edema and mortality at 24 hours post exposure.

[3] = tested on: 5-dpf zebrafish larvae challenged with P. aeruginosa LPS 60 μg/mL; conditions: compound 10 μM; for 5 dpf Embryos Percent Rescue (Mort + Tail Edema): 5-dpf larvae
Text: Confirmatory testing followed the same methods as the initial testing but used 5-dpf larvae instead of the 3-dpf larvae that were used for the initial screening because they were easier to handle and replicated the methods of Philip et al. (2017).
Next, follow-on 5-dpf screening was implemented to confirm initial screening with more larvae. Zebrafish swim faster at 5-dpf (requiring more time to load 96 plates), and all major organ systems are functioning at 5-dpf and thus determined as advantageous for follow-on confirmation.

[4] = tested on: zebrafish (4 dpf pre-treated, LPS exposure at 5-dpf) challenged with P. aeruginosa LPS 60 μg/mL; conditions: number of n = 16 fish; for 24 hour Tail Edema, No-Drug Pretreatment: 10 μM drug with LPS 60 μg/mL; for 24 hour Tail Edema, No-Drug Pretreatment / 24 Hour Mortality and Tail Edema, No-Drug Pretreatment / 24 Hour Mortality, No Drug Pretreatment: no 24-hour pre-treatment; for 24 Hour Mortality and Tail Edema, Drug Pretreatment / 24 Hour Mortality, Drug Pretreatment: 24-hour 10 μM drug pre-treatment; for 24 hour Tail Edema, Drug Pretreatment: 24-hour 10 μM drug pre-treatment before LPS 60 μg/mL
Description: Drugs identified with >80% rescue were subjected to additional testing. Drug pretreatment for 24 hours prior to LPS challenge was evaluated to determine if any prophylactic benefit could be realized with any of the top rescue drugs. The intent was to determine if drug pre-treatment might be used at the point of injury as a preventative therapeutic before the onset of infection and development of sepsis. Parallel groups of fish received a 24-hour drug pre-treatment or no drug pre-treatment prior to LPS challenge. For this test, 4 dpf PTU-treated zebrafish embryos were placed into 96 well plates containing 100 μL of EM. […] All plates were covered with parafilm and placed into an incubator at 28.5° C. for 24 hours. […] Once the plates were dosed, they were covered with parafilm and placed into an incubator at 28.5° C. The plates were removed at 6- and 24-hours post exposure and scored for tail edema and mortality. Once the 24-hour tail edema and mortality endpoints were collected, a neurobehavioral test was conducted as described in section 2.8.

Compound | rescue from mortality [1] | rescue from vascular damage (tail edema) [1] | efficacy in the zebrafish endotoxicity sepsis model ([1]; in vivo) | Percent Rescue (Mort + Tail Edema) [2] [%] | rescue of tail edema and mortality (sepsis rescue rate) at 3-dpf [2] [%] | 3 dpf Embryos Percent Rescue (Mort + Tail Edema) [2] [%] | 5 dpf Embryos Percent Rescue (Mort + Tail Edema) [3] [%] | rescue of tail edema and mortality (sepsis rescue rate) at 5-dpf [3] [%] | 24 hour Tail Edema, No-Drug Pretreatment [4] [fish] | 24 Hour Mortality and Tail Edema, Drug Pretreatment [4] [fish] | 24 Hour Mortality, Drug Pretreatment [4] [fish] | 24 hour Tail Edema, Drug Pretreatment [4] [fish] | 24 Hour Mortality and Tail Edema, No-Drug Pretreatment [4] [fish] | 24 Hour Mortality, No Drug Pretreatment [4] [fish] | fish with tail edemas ([1]; 6 hours post exposure) | fish with tail edema ([1]; 24 hours)
CN1C2CCCC1CC(NC(=O)c1nn(C)c3ccccc13)C2 (centres unmarked) [Granisetron] | significant reduction in mortality | did not rescue from vascular damage (tail edema) |  |  |  |  |  |  |  |  |  |  |  |  |  | 
Cc1nccn1CC1CCc2c(c3ccccc3n2C)C1=O (centres unmarked) [Ondansetron] |  |  | not efficacious |  |  |  |  |  |  |  |  |  |  |  |  | 
Clc1ccc(CCCOCCCN2CCCCC2)cc1 [Compound 435, Pitolisant] |  |  |  | 94 | 94 | 94 | 88 | 88 | 2 | 16 | 16 | 0 | 15 | 13 |  | 
O=C(O)c1cn(C2CC2)c2cc(N3CCNCC3)c(F)cc2c1=O [Compound 34, Ciprofloxacin (hydrochloride monohydrate)] | provided rescue from mortality | did not elicit rescue from vascular damage |  |  |  | 13 | 6 |  |  |  |  |  |  |  |  | 
CN1c2c(nc(N)[nH]c2=O)NC[C@@H]1CNc1ccc(C(=O)N[C@@H](CCC(=O)O)C(=O)O)cc1 [Compound 344, Levomefolic acid] |  |  |  | 63 | 63 | 63 | 88 | 88 | 1 | 16 | 16 | 0 | 16 | 15 |  | 
COc1ccc2c(c1)N(C[C@H](C)CN(C)C)c1ccccc1S2 [Compound 316, Levomepromazine] |  |  |  | 63 | 63 | 63 | 88 | 88 | 1 | 16 | 16 | 0 | 16 | 15 |  | 
Ferric citrate [Compound 340] |  |  |  | 94 | 94 | 94 | 81 | 81 | 2 | 15 | 15 | 0 | 15 | 13 | 9 of 16 fish | 1 of 16
COc1nc2ccc(Br)cc2cc1[C@@H](c1ccccc1)[C@@](O)(CCN(C)C)c1cccc2ccccc12 [Compound 227, Bedaquiline] |  |  |  | 75 |  | 75 | 75 |  | 0 | 16 | 16 | 0 | 16 | 16 |  | 
